Experimental data taken from patent US4439426A, “Semisynthetic macrolidic antibiotics, intermediate compounds for their preparation and related pharmaceutical compositions containing them” (priority 1981, dated 1984).
Values after ≈ are worked out from the molar mass of the structure shown.

What was measured:
[1] = tested on: Staphylococcus aureus ATCC 6538 P LRP 39; assay: Bacteriostatic power in liquid medium (MIC); assay type: cell-based; details: Staphylococcus aureus, ATCC6538; liquid medium; read-out: Minimum inhibiting concentration
Text: (§1) the bacteriostatic power, expressed as the minimum inhibiting concentration (MIC) against both aerobic and anaerobic, Gram positive and Gram negative, bacterial stocks: the related results are reported in the tables 2 and 3.

[2] = tested on: Streptococcus pyogenes ATCC 8668 LRP 34; assay: Bacteriostatic power in liquid medium (MIC); assay type: cell-based; details: Streptococcus pyogenes, ATCC8668; liquid medium; read-out: Minimum inhibiting concentration
Text: as §1

[3] = tested on: Corynebacterium diphteriae LRP 24; assay: Bacteriostatic power in liquid medium (MIC); assay type: cell-based; details: Corynebacterium, LRP24; liquid medium; read-out: Minimum inhibiting concentration
Text: as §1

[4] = tested on: Streptococcus pneumoniae ATCC 6303 LRP 35; assay: Bacteriostatic power in liquid medium (MIC); assay type: cell-based; details: Streptococcus pneumoniae, ATCC6303; liquid medium; read-out: Minimum inhibiting concentration
Text: as §1

[5] = tested on: Streptococcus faecalis subs. zymogenes ATCC 12958 LRP 61; assay: Bacteriostatic power in liquid medium (MIC); assay type: cell-based; details: Enterococcus faecalis, ATCC12958; liquid medium; read-out: Minimum inhibiting concentration
Text: as §1

[6] = tested on: Streptococcus faecalis LRP 7; assay: Bacteriostatic power in solid medium (MIC); assay type: cell-based; details: Enterococcus faecalis, LRP7; solid medium; read-out: Minimum inhibiting concentration
Text: as §1

[7] = tested on: Acholeplasma laidlawii ATCC 23206 LRP 204; assay: Bacteriostatic power in solid medium (MIC); assay type: cell-based; details: Acholeplasma laidlawii, ATCC23206; solid medium; read-out: Minimum inhibiting concentration
Text: as §1

[8] = tested on: Micrococcus luteus ATCC 15957 LRP 193; assay: Bacteriostatic power in solid medium (MIC); assay type: cell-based; details: Micrococcus luteus, ATCC15957; solid medium; Erythromycin resistant; read-out: Minimum inhibiting concentration
Text: as §1

[9] = tested on: Staphylococcus aureus ATCC 6538P LRP 14; assay: Bacteriostatic power in solid medium (MIC); assay type: cell-based; details: Staphylococcus aureus, ATCC6538P; solid medium; Penycilline resistant; read-out: Minimum inhibiting concentration
Text: as §1

[10] = tested on: Proteus vulgaris ATCC 6380 LRP 13; assay: Bacteriostatic power in solid medium (MIC); assay type: cell-based; details: Proteus vulgaris, ATCC6380; solid medium; read-out: Minimum inhibiting concentration
Text: as §1

[11] = tested on: Neisseria gonorrhoeae ATCC 19424 LRP 214; assay: Bacteriostatic power in solid medium (MIC); assay type: cell-based; details: Neisseria gonorrhoeae, ATCC19424; solid medium; read-out: Minimum inhibiting concentration
Text: as §1

[12] = tested on: Streptococcus pyogenes ATCC 8668 LRP 34; assay: Bacteriostatic power in solid medium (MIC); assay type: cell-based; details: Streptococcus pyogenes, ATCC8668; solid medium; read-out: Minimum inhibiting concentration
Text: as §1

[13] = tested on: Pseudomonas aeruginosa LRP 9; assay: Bacteriostatic power in solid medium (MIC); assay type: cell-based; details: Pseudomonas aeruginosa, LRP9; solid medium; read-out: Minimum inhibiting concentration
Text: as §1

Shigella sonnei LRP 5 = assay: Bacteriostatic power in solid medium (MIC); assay type: cell-based; details: LRP5, read-out: Minimum inhibiting concentration
Text: as §1

[14] = tested on: Streptococcus pneumoniae ATCC 6303 LRP 52; assay: Bacteriostatic power in solid medium (MIC); assay type: cell-based; details: Streptococcus pneumoniae, ATCC6303; solid medium; read-out: Minimum inhibiting concentration
Text: as §1

[15] = tested on: Corynebacterium diphteriae LRP 24; assay: Bacteriostatic power in solid medium (MIC); assay type: cell-based; details: Corynebacterium, LRP24; solid medium; read-out: Minimum inhibiting concentration
Text: as §1

[16] = tested on: Streptococcus pneumoniae ATCC 6303 LRP 35; assay: Bacteriostatic power in solid medium (MIC); assay type: cell-based; details: Streptococcus pneumoniae, ATCC6303; solid medium; read-out: Minimum inhibiting concentration
Text: as §1

[17] = tested on: Staphylococcus aureus ATCC 6538P LRP 39; assay: Bacteriostatic power in solid medium (MIC); assay type: cell-based; details: Staphylococcus aureus, ATCC6538P; solid medium; read-out: Minimum inhibiting concentration
Text: as §1

[18] = tested on: Streptococcus faecalis subsp. zymogenes ATCC 12958 LRP 61; assay: Bacteriostatic power in solid medium (MIC); assay type: cell-based; details: Enterococcus faecalis, ATCC12958; solid medium; read-out: Minimum inhibiting concentration
Text: as §1

[19] = tested on: Bacteroides fragilis ATCC 23745 LRP 205; assay: Bacteriostatic power in solid medium (MIC); assay type: cell-based; details: Bacteroides fragilis, ATCC23745; solid medium; anaerobic; read-out: Minimum inhibiting concentration
Text: as §1

[20] = tested on: Fusobacteriumnecrophroum ATCC 27852 LRP 210; assay: Bacteriostatic power in solid medium (MIC); assay type: cell-based; details: solid medium; anaerobic; read-out: Minimum inhibiting concentration
Text: as §1

Bacillus subtilis LRP 25 = assay: Bacteriostatic power in solid medium (MIC); assay type: cell-based; details: Bacillus subtilis, LRP25; solid medium; read-out: Minimum inhibiting concentration
Text: as §1

[21] = tested on: Mycoplasma hominis I ATCC 14027 LRP 211; assay: Bacteriostatic power in solid medium (MIC); assay type: cell-based; details: Metamycoplasma hominis, ATCC14027; solid medium; read-out: Minimum inhibiting concentration
Text: as §1

[22] = tested on: Staphylococcus aureus ATCC 14154 LRP 78; assay: Bacteriostatic power in solid medium (MIC); assay type: cell-based; details: Staphylococcus aureus, ATCC14154; solid medium; Erythromycin resistant; read-out: Minimum inhibiting concentration
Text: as §1

[23] = tested on: Micrococcus luteus ATCC 9341 LRP 6; assay: Bacteriostatic power in solid medium (MIC); assay type: cell-based; details: Micrococcus luteus, ATCC9341; solid medium; read-out: Minimum inhibiting concentration
Text: as §1

Escherichia coli LRP 50 = assay: Bacteriostatic power in solid medium (MIC); assay type: cell-based; details: Escherichia coli, LRP50; solid medium; read-out: Minimum inhibiting concentration
Text: as §1

[24] = tested on: Streptococcus pneumoniae ATCC 6303 LRP 53; assay: Bacteriostatic power in solid medium (MIC); assay type: cell-based; details: Streptococcus pneumoniae, ATCC6303; solid medium; read-out: Minimum inhibiting concentration
Text: as §1

[25] = tested on: Haemophilus influenzae ATCC 19418 LRP 213; assay: Bacteriostatic power in solid medium (MIC); assay type: cell-based; details: Haemophilus influenzae, ATCC19418; solid medium; read-out: Minimum inhibiting concentration
Text: as §1

[26] = tested on: Streptococcus pyogenes ATCC 8668 LRP 197; assay: Bacteriostatic power in solid medium (MIC); assay type: cell-based; details: Streptococcus pyogenes, ATCC8668; solid medium; read-out: Minimum inhibiting concentration
Text: as §1

[27] = tested on: Klelsiella pneumoniae LRP 54; assay: Bacteriostatic power in solid medium (MIC); assay type: cell-based; details: solid medium; read-out: Minimum inhibiting concentration
Text: as §1

[28] = tested on: Streptococcus faecalis subs. zymogenes LRP 61; assay: Minimum bactericidal concentration (MBC); assay type: cell-based
Text: (§2) the bacterial power, expressed as the minimum bactericidal power (MBC) against some Gram positive aerobic stocks (table 5).

[29] = tested on: Staphylococcus aureus ATCC 6538 P LRP 39; assay: Minimum bactericidal concentration (MBC); assay type: cell-based
Text: as §2

[30] = tested on: Streptococcus pyogenes ATCC 8668 LRP 34; assay: Minimum bactericidal concentration (MBC); assay type: cell-based
Text: as §2

[31] = tested on: Corynebacterium diphteriae LRP 24; assay: Minimum bactericidal concentration (MBC); assay type: cell-based
Text: as §2

[32] = tested on: Streptococcus pneumoniae ATCC 6303 LRP 35; assay: Minimum bactericidal concentration (MBC); assay type: cell-based
Text: as §2

[33] = Stability in acidic environment at 25° C. (half-life of initial microbiological activity); assay type: physicochemical; details: aqueous solution
Method: Stability in acidic environnment at 25° C. of the novel
Note: t 1/2 represents the time for reducing to one half the initial powe
of the antibiotic determined by microbiological method through diffusion
on a plate using the test stock Microccocus luteus (Sarcina lutea) ATCC

Salmonella typhy LRP 8 = assay: microbe, parasite or virus in culture; assay type: cell-based; details: LRP8, solid medium, read-out: Minimum inhibiting concentration
Text: as §1

[34] = tested on: Clostridium perfrigens ATCC 3624 LRP 206; assay: microbe, parasite or virus in culture; assay type: cell-based; details: ATCC3624, solid medium, anaerobic, read-out: Minimum inhibiting concentration
Text: as §1

CC[C@H]1OC(=O)[C@H](C)[C@@H](O[C@H]2C[C@@](C)(OC)[C@@H](O)[C@H](C)O2)[C@H](C)[C@@H](O[C@@H]2O[C@H](C)C[C@H](N(C)C)[C@H]2O)[C@](C)(O)C[C@](C)(F)C(=O)[C@H](C)[C@@H](O)[C@H]1C [P-80203, (8S)-8-fluoroerythromycin B]
MIC [1]: 0.097 µg/mL (≈ 0.132 µM) | MIC [2]: 0.024 µg/mL (≈ 0.0326 µM) | MIC [3]: 0.012 µg/mL (≈ 0.0163 µM) | MIC [4]: 0.049 µg/mL (≈ 0.0666 µM) | MIC [5]: 0.39 µg/mL (≈ 0.53 µM) | MIC [6]: 0.195 µg/mL (≈ 0.265 µM) | MIC [7]: 0.195 µg/mL (≈ 0.265 µM) | MIC [8]: 25 µg/mL (≈ 34 µM) | MIC [9]: 0.097 µg/mL (≈ 0.132 µM) | MIC [10]: 25 µg/mL (≈ 34 µM) | MIC [11]: 0.097 µg/mL (≈ 0.132 µM) | MIC [12]: 0.024 µg/mL (≈ 0.0326 µM) | MIC [13]: 25 µg/mL (≈ 34 µM) | MIC (Shigella sonnei LRP 5): 25 µg/mL (≈ 34 µM) | MIC [14]: 0.024 µg/mL (≈ 0.0326 µM) | MIC [15]: 6 ng/mL (≈ 0.00815 µM) | MIC [16]: 0.049 µg/mL (≈ 0.0666 µM) | MIC [17]: 0.097 µg/mL (≈ 0.132 µM) | MIC [18]: 0.195 µg/mL (≈ 0.265 µM) | MIC [19]: 0.195 µg/mL (≈ 0.265 µM) | MIC [20]: 3.12 µg/mL (≈ 4.24 µM) | MIC (Bacillus subtilis LRP 25): 0.049 µg/mL (≈ 0.0666 µM) | MIC [21]: 25 µg/mL (≈ 34 µM) | MIC [22]: 25 µg/mL (≈ 34 µM) | MIC [23]: 0.012 µg/mL (≈ 0.0163 µM) | MIC (Escherichia coli LRP 50): 25 µg/mL (≈ 34 µM) | MIC [24]: 0.024 µg/mL (≈ 0.0326 µM) | MIC [25]: 6.25 µg/mL (≈ 8.49 µM) | MIC [26]: 0.049 µg/mL (≈ 0.0666 µM) | MIC [27]: 25 µg/mL (≈ 34 µM) | MBC/MIC [28]: 8 | MBC ([28]; Enterococcus faecalis, read-out: Minimum bactericidal concentration (MBC)): 3.12 µg/mL (≈ 4.24 µM) | MBC/MIC [29]: 32 | MBC ([29]; Staphylococcus aureus, ATCC6538, read-out: Minimum bactericidal concentration (MBC)): 3.12 µg/mL (≈ 4.24 µM) | MBC/MIC [30]: 8 | MBC ([30]; Streptococcus pyogenes, ATCC8668, read-out: Minimum bactericidal concentration (MBC)): 0.195 µg/mL (≈ 0.265 µM) | MBC/MIC [31]: 4 | MBC ([31]; Corynebacterium, LRP24, read-out: Minimum bactericidal concentration (MBC)): 0.049 µg/mL (≈ 0.0666 µM) | MBC/MIC [32]: 1 | MBC ([32]; Streptococcus pneumoniae, ATCC6303, read-out: Minimum bactericidal concentration (MBC)): 0.049 µg/mL (≈ 0.0666 µM) | half-life ([33]; pH 2): 180 min | half-life ([33]; pH 3): 2700 min | MIC (Salmonella typhy LRP 8): 25 µg/mL (≈ 34 µM) | MIC [34]: 0.39 µg/mL (≈ 0.53 µM)
